We go through one compound from patent US20250008983A1, “COMPOSITIONS CONTAINING PEROXYACIDS TO CONTROL PATHOGEN GROWTH IN ANIMAL FEED AND RELATED METHODS” (KEMIN INDUSTRIES, INC., priority 2023, published 2025).

One assay deals with extracted Salmonella DNA. The assay is described as follows: DNA interaction Assay 1: treatment added to extracted DNA directly. The assay is classed as biochemical. The settings on record: 1 kg/T; one hour at room temperature; n = 3. As to the method: Method (Assay 1: Treatment added to extracted DNA directly). One mL of cell suspension (ca. 10^8 cfu/mL in TSBYE) was harvested by centrifugation at 5000 rcf for 10 minutes. The supernatant was discarded and resuspended as detailed in the protocol provided by the supplier. DNA was extracted using the QIAamp DNA Mini kit (Cat #51304, Qiagen). The samples were incubated at 56° C. for two hours and eluted with 200 uL of nuclease-free water. The same eluent was run through the column twice to increase the DNA concentration. Extracted DNA was quantified using Quant-iT dsDNA high-sensitivity assay kit (Q33120; Thermo Fischer Scientific). Extracted DNA was subsequently treated with the different treatment groups with a final concentration of 1 kg/T (prepared in 10 mM PBS). 1.5 uL of treatment solution (prepared at 10 times higher concentration) is added to 13.5 uL of extracted DNA. The solution was mixed well and left to stand at room temperature for one hour. After one hour, the solution was diluted with nuclease-free water 10 times. DNA was subsequently quantified using Quant-iT dsDNA high-sensitivity assay kit (Q33120; Thermo Fischer Scientific). Method (Assay 2: Treatment added to cells followed by extraction). […] Extracted DNA was quantified using Quant-iT dsDNA high-sensitivity assay kit (Q33120; Thermo Fischer Scientific). […]

Assay [1] has as its system Salmonella enterica isolated from layer feed. Kind of assay: Preliminary in vitro feed assay, Salmonella count in contaminated feed over 21 days. The assay is classed as cell-based. The settings on record: 15 kg/ton; pre-treatment Day 0. As to the method: Preparation of the treatment. Perpropionic acid, peracetic acid, mixture of peroctanoic acid and perdecanoic acid (PC8/PC10) and Sal CURB products were used without any further dilution or mixing. The peroxy mix was prepared by mixing peracetic and perpropionic acid in 1:1 weight ratio. Briefly, 1.0 g of peroxy mix was prepared by weighing 0.5 g of peracetic acid into 0.5 g of perpropionic acid. The mixture was mixed well prior to usage. Similar procedure was followed in the preparation of 3% sulphuric acid (where […] of water) and peroxy mix with ester (where 0.9 g of peroxy mix (prepared with peracetic and propionic acid) was mixed with 0.1 g of propylene glycol propionate esters). […] Briefly, 1 mL of 75% phosphoric acid was added to 10 mL of Pro-Oxine solution and mixed well. The mixture is covered and let to stand for 10 mins prior to usage.
Preparation of stock feed inoculum. The researchers prepared contaminated feed from known methods, where Salmonella enterica isolated from layer feed was revived from the glycerol stock by plating a loopful of culture onto the TSAYE (i.e., tryptone soya agar supplemented with 0.6% yeast extract (CM0131B; Oxoid) prepared as per recommended) and incubate for 18-24 hours at 37° C. Following which, the colonies were collected aseptically with saline solution (i.e., 0.9% sodium chloride (V800372; Sigma-Aldrich) prepared in deionized water), yielding approximately 5 mL of biomass suspension. The biomass suspension was diluted accordingly to meet the contamination level required for the stock inoculum. No dilution was required for high contamination level of ca. 10^7 cfu/g whereas biomass suspension was diluted 1000 times to achieve lower contamination level of ca. 10^4 cfu/g in the stock inoculum. The stock feed inoculum was prepared by adding the biomass suspension (5 mL) into 100 g of sterile feed (made up with 7:3 ground corn and soybean, autoclaved at 121° C. for one hour and dried for 24 hours at 65° C.) with a syringe and needle, and homogenously mixed after. The stock feed inoculum was stored at 25° C. for a week. Salmonella count of the stock inoculum was determined using conventional plating method with XLD agar (i.e., Xylose lysine deoxycholate (CM0469B; Oxoid)) and BPW (i.e., buffered peptone water (CM0509B; Oxoid)) prior to usage. Briefly, three grams of stock feed inoculum was weighed into a 50 mL conical tube, diluted with 27 mL of BPW, homogenously mixed and left to stand for 30 minutes. The feed suspension was then serial diluted to the appropriate dilutions. An aliquot of 0.1 mL of the feed suspension was plated onto the agar at each dilution and incubated at 37° C. for 18-24 hours prior to enumeration. Plating was carried out in triplicates. Blank stock feed was prepared by adding 5 mL of saline into 100 g of sterile feed.
Preparation of the feed inoculum. The stock feed inoculum was diluted approximately 100 times with sterile feed where three grams of stock inoculum was added into 307 g of sterile feed and kept at 37° C. for 24 hours. The Salmonella count of the feed was determined prior to treatment. Briefly, 90 mL of BPW was added into 10 g of feed sample in a sterile bag (10^−1 dilution). The mixture was homogenously mixed with a stomacher at medium speed for three minutes and left to stand for 30 minutes. The feed supernatant was serial diluted to appropriate dilutions for plating. The plates were incubated at 37° C. for 18-24 hours prior to counting. If low Salmonella count was expected, the sample size was increased to 1 mL by plating 300, 300 and 400 uL onto three plates in triplicates for […] detection limit (10 cfu/g). Blank feed was prepared by adding three grams of blank stock feed into 307 g of sterile feed. In addition, an extra contaminated feed was prepared as a control.
Treatment of contaminated feed. […]

The structures appear in SMILES notation. Marks after values point to notes of the source that are not given here.

Turning to `CCC(=O)OO` [Perpropionic acid, perpropionic acid], the “DNA concentration, Average ± SD, Assay 1” value with extracted Salmonella DNA was 42.8 ± 2.9^b ng/uL. Also, the Salmonella count in assay [1] came to 5.62 log cfu/g.
